This assay in a line: In vivo experiments: activity level after removal of a component. Particulars: named component removed from product. The source says: The basis for the disclosure that 2-6 methoxy substituted benzoquinones is not an active component of the present invention is vivo experiments.
Take 2-6 methoxy substituted benzoquinones: the “activity level of the present invention when the component was removed” value was “remained unchanged”.
Then `COc1cc(O)cc(OC)c1O` [a, 2,6-dimethoxy-1,4-hydroquinone], with “decreased”; and `COC1=CC(=O)C=CC1=O` [b, monomethoxy-1,4-benzoquinone], with “decreased”; and `COc1cc(O)ccc1O` [c, monomethoxy-1,4-hydroquinone], with “decreased”.

For the origin of these results see patent US11129389B2, “Gluten-free grain-concentrate substitute for fermented wheat germ food product and method of preparation” (priority 2013, dated 2021).
